What was measured:
Format in all cases: functional
NCI-H226 = test: Growth inhibition of human NCI-H226 cells assessed as cell growth at 10^-6 M incubated for 48 hrs by sulforhodamine B assay relative to control; conditions: NCI-H226, 48 h, read-out: Activity
TK-10 = test: Growth inhibition of human TK10 cells assessed as cell growth at 10^-5 M incubated for 48 hrs by sulforhodamine B assay relative to control; conditions: TK-10, 48 h, read-out: Activity
KM12 = test: Growth inhibition of human KM12 cells assessed as cell growth at 10^-4 M incubated for 48 hrs by sulforhodamine B assay relative to control; conditions: KM12, 48 h, read-out: Activity
HCT-15 = test: Growth inhibition of human HCT15 cells assessed as cell growth at 10^-4 M incubated for 48 hrs by sulforhodamine B assay relative to control; conditions: HCT-15, 48 h, read-out: Activity
IGROV-1 = test: Growth inhibition of human IGROV1 cells assessed as cell growth at 10^-7 M incubated for 48 hrs by sulforhodamine B assay relative to control; conditions: IGROV-1, 48 h, read-out: Activity
MCF7 = test: Growth inhibition of human MCF7 cells assessed as cell growth at 10^-6 M incubated for 48 hrs by sulforhodamine B assay relative to control; conditions: MCF7, 48 h, read-out: Activity
MDA-MB-468 = test: Growth inhibition of human MDA-MB-468 cells assessed as cell growth at 10^-7 M incubated for 48 hrs by sulforhodamine B assay relative to control; conditions: MDA-MB-468, 48 h, read-out: Activity
UACC-62 = test: Growth inhibition of human UACC62 cells assessed as cell growth at 10^-7 M incubated for 48 hrs by sulforhodamine B assay relative to control; conditions: UACC-62, 48 h, read-out: Activity
DU-145 = test: Growth inhibition of human DU145 cells assessed as cell growth at 10^-4 M incubated for 48 hrs by sulforhodamine B assay relative to control; conditions: DU-145, 48 h, read-out: Activity
HCC 2998 = test: Cytotoxicity against human HCC2998 cells after 48 hrs by SRB assay; conditions: HCC 2998, 48 h; for GI50: read-out: pGI50 (converted); for CC50: read-out: pLC50 (the source's name) (converted)
U-251 [1] = test: Cytotoxicity against human U251 cells after 48 hrs by SRB assay; conditions: U-251, 48 h; for CC50: read-out: pLC50 (the source's name) (converted)
UACC-257 = test: Growth inhibition of human UACC257 cells assessed as cell growth at 10^-7 M incubated for 48 hrs by sulforhodamine B assay relative to control; conditions: UACC-257, 48 h, read-out: Activity
SF-268 [2] = test: Cytotoxicity against human SF268 cells after 48 hrs by SRB assay; conditions: SF-268, 48 h; for GI50: read-out: pGI50 (converted)
OVCAR-5 = test: Growth inhibition of human OVCAR5 cells assessed as cell growth at 10^-6 M incubated for 48 hrs by sulforhodamine B assay relative to control; conditions: OVCAR-5, 48 h, read-out: Activity
OVCAR-4 = test: Cytotoxicity against human OVCAR4 cells after 48 hrs by SRB assay; conditions: OVCAR-4, 48 h; for GI50: read-out: pGI50 (converted); for CC50: read-out: pLC50 (the source's name) (converted)
OVCAR-3 = test: Growth inhibition of human OVCAR3 cells assessed as cell growth at 10^-4 M incubated for 48 hrs by sulforhodamine B assay relative to control; conditions: OVCAR-3, 48 h, read-out: Activity
786-0 = test: Cytotoxicity against human 786-0 cells after 48 hrs by SRB assay; conditions: 786-0, 48 h; for GI50: read-out: pGI50 (converted)
SNB-19 = test: Growth inhibition of human SNB19 cells assessed as cell growth at 10^-7 M incubated for 48 hrs by sulforhodamine B assay relative to control; conditions: SNB-19, 48 h, read-out: Activity
U-251 [3] = test: Growth inhibition of human U251 cells assessed as cell growth at 10^-8 M incubated for 48 hrs by sulforhodamine B assay relative to control; conditions: U-251, 48 h, read-out: Activity
SK-MEL-28 = test: Growth inhibition of human SK-MEL-28 cells assessed as cell growth at 10^-5 M incubated for 48 hrs by sulforhodamine B assay relative to control; conditions: SK-MEL-28, 48 h, read-out: Activity
NCI/ADR-RES = test: Cytotoxicity against human NCI-ADR-RES cells after 48 hrs by SRB assay; conditions: for GI50: read-out: pGI50 (converted); for CC50: read-out: pLC50 (the source's name) (converted)
SN12C = test: Growth inhibition of human SN12C cells assessed as cell growth at 10^-4 M incubated for 48 hrs by sulforhodamine B assay relative to control; conditions: read-out: Activity
SR = test: Growth inhibition of human SR cells assessed as cell growth at 10^-5 M incubated for 48 hrs by sulforhodamine B assay relative to control; conditions: read-out: Activity
NCI-H522 = test: Cytotoxicity against human NCI-H522 cells after 48 hrs by SRB assay; conditions: NCI-H522, 48 h; for CC50: read-out: LC50 (the source's name)
U-251 [4] = test: Growth inhibition of human U251 cells assessed as cell growth at 10^-6 M incubated for 48 hrs by sulforhodamine B assay relative to control; conditions: U-251, 48 h, read-out: Activity
SF-268 [5] = test: Growth inhibition of human SF268 cells assessed as cell growth at 10^-6 M incubated for 48 hrs by sulforhodamine B assay relative to control; conditions: SF-268, 48 h, read-out: Activity
SF-268 [6] = test: Growth inhibition of human SF268 cells assessed as cell growth at 10^-7 M incubated for 48 hrs by sulforhodamine B assay relative to control; conditions: SF-268, 48 h, read-out: Activity
HL-60(TB) [7] = test: Growth inhibition of human HL-60(TB) cells assessed as cell growth at 10^-7 M incubated for 48 hrs by sulforhodamine B assay relative to control; conditions: HL-60, 48 h, read-out: Activity
SF-539 = test: Growth inhibition of human SF539 cells assessed as cell growth at 10^-7 M incubated for 48 hrs by sulforhodamine B assay relative to control; conditions: SF-539, 48 h, read-out: Activity
K562 = test: Cytotoxicity against human K562 cells after 48 hrs by SRB assay; conditions: K562, 48 h; for CC50: read-out: LC50 (the source's name); for GI50: read-out: pGI50 (converted)
ACHN = test: Growth inhibition of human ACHN cells assessed as cell growth at 10^-5 M incubated for 48 hrs by sulforhodamine B assay relative to control; conditions: read-out: Activity
HL-60(TB) [8] = test: Growth inhibition of human HL-60(TB) cells assessed as cell growth at 10^-6 M incubated for 48 hrs by sulforhodamine B assay relative to control; conditions: HL-60, 48 h, read-out: Activity

C#C[C@@]1(O)[C@@H](CO)O[C@@H](n2ccc3c(N)ncnc32)[C@@H]1O
growth at 1 µM (NCI-H226): 92% | growth at 10 µM (TK-10): -2% | growth at 100 µM (KM12): -52% | growth at 100 µM (HCT-15): -32% | growth at 0.1 µM (IGROV-1): 100% | growth at 1 µM (MCF7): 13% | growth at 0.1 µM (MDA-MB-468): 97% | growth at 0.1 µM (UACC-62): 101% | growth at 100 µM (DU-145): -48% | TGI (HCC 2998; read-out: TGI): 3.12 µM | GI50 (HCC 2998): 1.45 µM | CC50 (HCC 2998): 6.76 µM | TGI (HCC 2998; read-out: pTGI (converted)): 3.09 µM | TGI (U-251 [1]; read-out: TGI): 11.8 µM | GI50 (U-251 [1]; read-out: pGI50 (converted)): 2.45 µM | CC50 (U-251 [1]): > 100 µM | TGI (U-251 [1]; read-out: pTGI (converted)): 11.7 µM | growth at 0.1 µM (UACC-257): 105% | TGI (SF-268 [2]; read-out: TGI): 26.1 µM | GI50 (SF-268 [2]): 2.34 µM | CC50 (SF-268 [2]; read-out: pLC50 (the source's name) (converted)): > 100 µM | TGI (SF-268 [2]; read-out: pTGI (converted)): 26.3 µM | growth at 1 µM (OVCAR-5): 106% | TGI (OVCAR-4; read-out: TGI): 7.79 µM | GI50 (OVCAR-4): 1.95 µM | CC50 (OVCAR-4): 28.2 µM | TGI (OVCAR-4; read-out: pTGI (converted)): 7.76 µM | growth at 100 µM (OVCAR-3): -36% | TGI (786-0; read-out: TGI): 6.15 µM | GI50 (786-0): 1.62 µM | LC50 (lethal concentration, 50% cell kill) (786-0; read-out: pLC50 (converted)): 25.7 µM | TGI (786-0; read-out: pTGI (converted)): 6.17 µM | growth at 0.1 µM (SNB-19): 98% | growth at 0.01 µM (U-251 [3]): 102% | growth at 10 µM (SK-MEL-28): 21% | TGI (NCI/ADR-RES; read-out: TGI): 7.28 µM | GI50 (NCI/ADR-RES): 0.794 µM | CC50 (NCI/ADR-RES): > 100 µM | TGI (NCI/ADR-RES; read-out: pTGI (converted)): 7.24 µM | growth at 100 µM (SN12C): -64% | growth at 10 µM (SR): 15% | CC50 (NCI-H522): > 100 µM | TGI (NCI-H522; read-out: TGI): 3.82 µM | GI50 (NCI-H522; read-out: pGI50 (converted)): 0.372 µM | TGI (NCI-H522; read-out: pTGI (converted)): 3.8 µM | growth at 1 µM (U-251 [4]): 80% | growth at 1 µM (SF-268 [5]): 76% | growth at 0.1 µM (SF-268 [6]): 95% | growth at 0.1 µM (HL-60(TB) [7]): 105% | growth at 0.1 µM (SF-539): 103% | CC50 (K562): > 100 µM | TGI (K562; read-out: TGI): > 100 µM | GI50 (K562): 0.813 µM | TGI (K562; read-out: pTGI): > 100 µM | growth at 10 µM (ACHN): -18% | growth at 1 µM (HL-60(TB) [8]): 68%

C#C[C@@]1(O)[C@@H](CO)O[C@@H](n2cc(F)c3c(N)ncnc32)[C@@H]1O
growth at 1 µM (NCI-H226): 32% | growth at 10 µM (TK-10): -9% | growth at 100 µM (KM12): -10% | growth at 100 µM (HCT-15): -33% | growth at 0.1 µM (IGROV-1): 96% | growth at 1 µM (MCF7): -8% | growth at 0.1 µM (MDA-MB-468): 84% | growth at 0.1 µM (UACC-62): 91% | growth at 100 µM (DU-145): -4% | TGI (HCC 2998; read-out: TGI): 2.82 µM | GI50 (HCC 2998): 0.603 µM | CC50 (HCC 2998): 15.8 µM | TGI (HCC 2998; read-out: pTGI (converted)): 2.82 µM | GI50 (U-251 [1]; read-out: GI50): 0.631 µM | TGI (U-251 [1]; read-out: TGI): 11.6 µM | GI50 (U-251 [1]; read-out: pGI50 (converted)): 0.631 µM | CC50 (U-251 [1]): > 100 µM | TGI (U-251 [1]; read-out: pTGI (converted)): 11.7 µM | growth at 0.1 µM (UACC-257): 85% | CC50 (SF-268 [2]; read-out: LC50 (the source's name)): > 100 µM | TGI (SF-268 [2]; read-out: TGI): 78.3 µM | GI50 (SF-268 [2]): 0.759 µM | TGI (SF-268 [2]; read-out: pTGI (converted)): 77.6 µM | growth at 1 µM (OVCAR-5): 65% | TGI (OVCAR-4; read-out: TGI): 8.67 µM | GI50 (OVCAR-4): 1 µM | CC50 (OVCAR-4): > 100 µM | TGI (OVCAR-4; read-out: pTGI (converted)): 8.71 µM | growth at 100 µM (OVCAR-3): 3% | TGI (786-0; read-out: TGI): 2.84 µM | GI50 (786-0): 0.708 µM | TGI (786-0; read-out: pTGI (converted)): 2.82 µM | growth at 0.1 µM (SNB-19): 79% | growth at 0.01 µM (U-251 [3]): 97% | growth at 10 µM (SK-MEL-28): 37% | TGI (NCI/ADR-RES; read-out: TGI): 11.3 µM | GI50 (NCI/ADR-RES): 0.309 µM | CC50 (NCI/ADR-RES): > 100 µM | TGI (NCI/ADR-RES; read-out: pTGI (converted)): 11.2 µM | growth at 100 µM (SN12C): -24% | growth at 10 µM (SR): 4% | GI50 (NCI-H522; read-out: GI50): 0.18 µM | CC50 (NCI-H522): > 100 µM | TGI (NCI-H522; read-out: TGI): 0.929 µM | GI50 (NCI-H522; read-out: pGI50 (converted)): 0.178 µM | TGI (NCI-H522; read-out: pTGI (converted)): 0.933 µM | growth at 1 µM (U-251 [4]): 38% | growth at 1 µM (SF-268 [5]): 42% | growth at 0.1 µM (SF-268 [6]): 105% | growth at 0.1 µM (HL-60(TB) [7]): 103% | growth at 0.1 µM (SF-539): 107% | CC50 (K562): > 100 µM | TGI (K562; read-out: TGI): > 100 µM | GI50 (K562): 0.288 µM | TGI (K562; read-out: pTGI): > 100 µM | growth at 10 µM (ACHN): 2% | growth at 1 µM (HL-60(TB) [8]): 20%
